Reference: patent US7572949B2, “SKN-1 and GSK-3 genes and proteins” (Immune Disease Institute, Inc., priority 2003, dated 2009)

Assays:
[1] = tested on: GCS-1::GFP expression in the intestine; assay: Induction of GCS-1::GFP expression in the intestine by oxidative stress (transgenic worms, fluorescence microscopy); assay type: in vivo, C. elegans; conditions: for percentage of animals with high intestinal GCS-1::GFP expression / percentage of animals with low intestinal GCS-1::GFP expression / percentage of animals with medium intestinal GCS-1::GFP expression: 1 mM paraquat in the agar, 20° C., 3 days, mixed L2-young adult worms
Experimental: Transgenic strains were generated by injecting DNA into the gonad of young adult animals as described in Mello et al. (EMBO Journal 10: 3959-3970 (1991)). gcs-1::gfp transgene constructs (FIG. 3A) were injected at 50 ng/μl along with the rol-6 marker (pRF4) at 100 ng/μl. Between three and six independent extrachromosomal lines were generated and analyzed for each gcs-1::gfp construct. To investigate GCS-1::GFP expression in the skn-1(zu67) background, rol-6-marked gcs-1::gfp hermaphrodites were mated with N2 males, then their transgenic progeny were crossed with skn-1(zu67)/DnT1 hermaphrodites, which have an unc phenotype. After transgenic males were successively crossed twice with skn-1(zu67)/DnT1 hermaphrodites, unc; rol F3 hermaphrodite progeny were selected. From this population, skn-1(zu67)/DnT1; gcs-1::gfp animals were identified on the basis of their non-unc; rol progeny laying dead eggs. Two different gcs-1:gfp lines were thereby crossed into the skn-1(zu67) background and examined for GFP expression. DIC and fluorescence images were acquired with a Zeiss AxioSKOP2 microscope and AxioCam cooled color digital camera.
To investigate expression of gcs-1::gfp and mutant transgenes, worms were exposed to oxidative stress under the following conditions. For heat shock, worms cultured at 20° C. were transferred onto prewarmed seeded plates and incubated at 29° C. for 20 hours, then examined by fluorescence microscopy for GFP expression. gcs-1::gfp induction was also observed in an alternative heat treatment protocol, during which worms cultured at 20° C. were transferred onto prewarmed plates and incubated at 34° C. for 2 to 4 hours, then returned to 20° C. and examined for GFP expression hourly during a four hour recovery period. In the experiments described in Table 2, young adults were transferred to plates that contained 1 mM paraquat in the agar and maintained at 20° C. for 3 days prior to analysis. In an alternative induction protocol, worms that carried gcs-1::gfp or the mutant transgenes shown in FIG. 3A were incubated in M9 either with or without 100 mM paraquat for 30 minutes, then allowed to recover on plates for four hours.

SKN-1::GFP = assay: Accumulation of SKN-1::GFP in intestinal nuclei in response to oxidative stress (skn-1::gfp transgenic worms); assay type: in vivo, C. elegans
Experimental: To create transgenic skn-1::gfp strains, 2.5, 10, or 50 ng/μl of transgene DNA (FIG. 5A) was injected into N2 animals at along with 100 ng/μl of pRF4 to generate extrachromosomal transgenic lines. Two different extrachromosomal arrays, Ex001 and Ex007, generated with 2.5 and 10 ng/μl of SKN-1::GFP, respectively, were integrated into the chromosome by UV irradiation (400 J/m2) to produce the insertion strains Is001 and Is007, respectively. To rescue the embryonic lethality of a skn-1 mutation, SKN-1::GFP was injected into skn-1(zu67)/DnT1 animals at 2.5 ng/μl with 100 ng/μl of the pRF4 marker. […] To analyze expression and localization of SKN-1::GFP in response to oxidative stress, skn-1::gfp transgenic worms were treated as described above for the gcs-1::gfp expression studies. […] These worms were scored for presence of SKN-1::GFP in intestinal nuclei 5 minutes later. […] To discriminate intestinal autofluorescence from SKN-1::GPP epifluorescence, a triple band emission filter set (Chroma 61000) was used in conjunction with a narrow band excitation filter (484/14 nm). This combination allowed autofluorescence to be detected as yellow/orange fluorescence deriving from a combined green and red signal, while GFP remained green. Worms that carried skn-1::gfp, gcs-1::gfp and gcs-1::gfp mutant transgenes were incubated with 50 μg/ml DiI (Molecular Probes) in M9 for 3 hours at 20° C., then transferred to fresh plates for 1 hour to destain, and examined under the fluorescence microscope. The ASI chemosensory neurons were identified by according to their intensity of DiI labeling and location relative to other DiI-labeled cells.

[2] = tested on: C. elegans pathway mediated by SKN-1; conditions: in vivo
[3] = 2 mM, immobilization for photography, during the times examined (data not shown)
[4] = paraquat, treated as for the gcs-1::gfp studies, mixed-stage L2-young adult worms

c1ccc([C@H]2CN3CCSC3=N2)cc1 [Levamisole]
GCS-1::GFP induction by immobilization agent [1, 3]: did not stimulate
SKN-1::GFP relocalization by immobilization agent (SKN-1::GFP; [3]): did not stimulate

C[n+]1ccc(-c2cc[n+](C)cc2)cc1 [Paraquat, paraquat (methyl viologen)]
intestinal gcs-1::gfp expression, alternative induction protocol ([1]; 100 mM paraquat in M9 for 30 minutes, four hours recovery on plates): induction of intestinal gcs-1::gfp expression
percentage of animals with high intestinal GCS-1::GFP expression ([1]; gcs-1::gfp transgene): 18.4%
percentage of animals with low intestinal GCS-1::GFP expression ([1]; gcs-1::gfp transgene): 14.5%
percentage of animals with medium intestinal GCS-1::GFP expression ([1]; gcs-1::gfp transgene): 67.1%
percentage of animals with high intestinal GCS-1::GFP expression ([1]; gcsΔ2::gfp transgene): 13.1%
percentage of animals with low intestinal GCS-1::GFP expression ([1]; gcsΔ2::gfp transgene): 21.3%
percentage of animals with medium intestinal GCS-1::GFP expression ([1]; gcsΔ2::gfp transgene): 65.6%
GCS-1::GFP in the intestine and ASI neurons of skn-1 homozygotes ([1]; skn-1 homozygotes, after paraquat treatment (data not shown)): absence of GCS-1::GFP
SKN-1::GFP in the ASI neurons after exposure (SKN-1::GFP; ASI neurons, after exposure to paraquat): neither the location nor intensity of SKN-1::GFP was detectably altered
SKN-1::GFP in intestinal cell nuclei after exposure (SKN-1::GFP; in a high percentage of animals, particularly anteriorly and posteriorly, after exposure to paraquat): elevated levels of SKN-1::GFP
percentage of animals with high SKN-1::GFP in intestinal nuclei (SKN-1::GFP; [4]): 3.1%
percentage of animals with low SKN-1::GFP in intestinal nuclei (SKN-1::GFP; [4]): 53.1%
percentage of animals with medium SKN-1::GFP in intestinal nuclei (SKN-1::GFP; [4]): 43.8%

[N-]=[N+]=[N-] [Sodium Azide, sodium azide]
percentage of animals with high SKN-1::GFP in intestinal nuclei (SKN-1::GFP; in vivo): 55.0%
percentage of animals with low SKN-1::GFP in intestinal nuclei (SKN-1::GFP; in vivo): 0.8%
percentage of animals with medium SKN-1::GFP in intestinal nuclei (SKN-1::GFP; in vivo): 44.2%

C[S+]([O-])CCCCN=C=S (stereo not shown) [sulforaphane]
response of the SKN-1-mediated pathway [2]: responds
